Experimental data taken from patent US10941157B2, “Pesticidal compositions and uses thereof” (Gilead Apollo, LLC, priority 2015, dated 2021).
Converted amounts (≈) assume the structure as drawn. Read-outs that look alike come from different tables or passages of the source.

How the values were obtained:
Format in all cases: cell-based
[1] = tested on: Botrtyis cinerea (Bc); assay: In vitro pathogen growth inhibition assay, Bc; details: 48 h
Method in brief: (§1)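 Spores in 17% V8 liquid medium, or 1.5 mm Rs mycelial plugs in ¼ PDB, incubated with compound; final concentration checked by OD600 for precipitation. OD readings at 24 and 48 h, blank-subtracted, plus visual ratings; value is concentration giving ≥90% growth inhibition.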

[2] = tested on: Collectotrichum graminicola (Cg); assay: In vitro pathogen growth inhibition assay, Cg; details: 48 h
Method in brief: as §1

[3] = tested on: Diplodia maydis (Dm); assay: In vitro pathogen growth inhibition assay, Dm; details: Stenocarpella maydis, 48 h
Method in brief: (§2)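 Value reported is the compound concentration reaching ≥90% growth inhibition, from OD readings at 24 and 48 h after blank subtraction, confirmed visually. Inoculum was spores diluted in 17% V8 medium, except Rs, using 1.5 mm mycelial plugs in ¼ PDB; actual compound concentration corrected via OD600.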

[4] = tested on: Fusarium moniliforme (Fm); assay: In vitro pathogen growth inhibition assay, Fm; details: Fusarium verticillioides
Method in brief: as §1

[5] = tested on: Fusarium virguliforme (Fv); assay: In vitro pathogen growth inhibition assay, Fv
Method in brief: as §2

[6] = tested on: Phytophthora capsici (Pc); assay: In vitro pathogen growth inhibition assay, Pc; details: 48 h
Method in brief: as §2

[7] = tested on: Rhizoctonia solani (Rs); assay: In vitro pathogen growth inhibition assay, Rs (mycelial plugs); details: Rhizoctonia solani, 48 h, mycelial plugs
Method in brief: as §2

[8] = tested on: Septoria tritici (St); assay: In vitro pathogen growth inhibition assay, St; details: Zymoseptoria tritici, 48 h
Method in brief: as §1

[9] = tested on: Saccharomyces cerevisiae (Sc); assay: Yeast growth inhibition assay; details: for IC75: Saccharomyces cerevisiae, ≥75% inhibition, read-out: Compound Concentration (ppm) sufficient for ≥75% inhibition, Sc
Method: Both tables list the concentration of each compound that was sufficient to ≥90% inhibition of growth for each of the fungal pathogens listed above. In addition, some of compounds were tested in a yeast growth inhibition assay for Saccharomyces cerevisiae (Sc). Table 2 lists the concentration of the tested compound that was sufficient to ≥75% inhibition of Saccharomyces cerevisiae (Sc).

[10] = ≥90% inhibition, 48 hours vs 2% DMSO control, read-out: Compound Concentration (ppm) sufficient for ≥90% inhibition of growth, Bc
[11] = ≥90% inhibition, 48 hours vs 2% DMSO control, read-out: Compound Concentration (ppm) sufficient for ≥90% inhibition of growth, Cg
[12] = ≥90% inhibition, 48 hours vs 2% DMSO control, read-out: Compound Concentration (ppm) sufficient for ≥90% inhibition of growth, Dm
[13] = ≥90% inhibition, 48 hours vs 2% DMSO control, read-out: Compound Concentration (ppm) sufficient for ≥90% inhibition of growth, Fm
[14] = ≥90% inhibition, 48 hours vs 2% DMSO control, read-out: Compound Concentration (ppm) sufficient for ≥90% inhibition of growth, Fv
[15] = ≥90% inhibition, 48 hours vs 2% DMSO control, read-out: Compound Concentration (ppm) sufficient for ≥90% inhibition of growth, Pc
[16] = ≥90% inhibition, 48 hours vs 2% DMSO control, read-out: Compound Concentration (ppm) sufficient for ≥90% inhibition of growth, Rs
[17] = ≥90% inhibition, 48 hours vs 2% DMSO control, read-out: Compound Concentration (ppm) sufficient for ≥90% inhibition of growth, St
[18] = ≥90% growth inhibition, 48 hours, vs 2% DMSO control, read-out: Compound Concentration (ppm) sufficient for ≥90% inhibition of Bc
[19] = ≥90% growth inhibition, 48 hours, vs 2% DMSO control, read-out: Compound Concentration (ppm) sufficient for ≥90% inhibition of Cg
[20] = ≥90% growth inhibition, 48 hours, vs 2% DMSO control, read-out: Compound Concentration (ppm) sufficient for ≥90% inhibition of Dm
[21] = ≥90% growth inhibition, 48 hours, vs 2% DMSO control, read-out: Compound Concentration (ppm) sufficient for ≥90% inhibition of Fm
[22] = ≥90% growth inhibition, 48 hours, vs 2% DMSO control, read-out: Compound Concentration (ppm) sufficient for ≥90% inhibition of Fv
[23] = ≥90% growth inhibition, 48 hours, vs 2% DMSO control, read-out: Compound Concentration (ppm) sufficient for ≥90% inhibition of Pc
[24] = ≥90% growth inhibition, 48 hours, vs 2% DMSO control, read-out: Compound Concentration (ppm) sufficient for ≥90% inhibition of Rs
[25] = ≥90% growth inhibition, 48 hours, vs 2% DMSO control, read-out: Compound Concentration (ppm) sufficient for ≥90% inhibition of St

Row | Compound | IC90 [1, 10] [µg/mL] | IC90 [2, 11] [µg/mL] | IC90 [3, 12] [µg/mL] | IC90 [4, 13] [µg/mL] | IC90 [5, 14] [µg/mL] | IC90 [6, 15] [µg/mL] | IC90 [7, 16] [µg/mL] | IC90 [8, 17] [µg/mL] | IC75 [9] [µg/mL] | IC90 [1, 18] [µg/mL] | IC90 [2, 19] [µg/mL] | IC90 [3, 20] [µg/mL] | IC90 [4, 21] [µg/mL] | IC90 [5, 22] [µg/mL] | IC90 [6, 23] [µg/mL] | IC90 [7, 24] [µg/mL] | IC90 [8, 25] [µg/mL] | Compound Concentration (ppm) sufficient for ≥75% inhibition of Sc [9] [ppm]
1 | CCNC(=O)C(C)(C)n1c(=O)c2c(C)c(-c3ncco3)sc2n(C[C@H](OC(C)C)c2ccccc2OC)c1=O [Compound I-144] | 10 (≈ 18 µM) | 50 (≈ 90.1 µM) | 10 (≈ 18 µM) | 2 (≈ 3.61 µM) | 10 (≈ 18 µM) | > 50 | > 50 | > 50 | 11 (≈ 19.8 µM) | – | – | – | – | – | – | – | – | –
2 | COc1ccccc1[C@H](Cn1c(=O)n(C(C)(C)C(N)=O)c(=O)c2c(C)c(-c3ncco3)sc21)OC1CCOCC1 [Compound I-145] | 50 (≈ 87.9 µM) | 50 (≈ 87.9 µM) | 50 (≈ 87.9 µM) | 2 (≈ 3.52 µM) | > 50 | > 50 | > 50 | > 50 | > 33 | – | – | – | – | – | – | – | – | –
3 | COc1ccc(F)cc1[C@H](Cn1c(=O)n(C(C)(C)C(N)=O)c(=O)c2c(C)c(C3CCC3)sc21)OC1CCOCC1 [Compound I-147] | 10 (≈ 17.4 µM) | 50 (≈ 87.2 µM) | > 50 | 2 (≈ 3.49 µM) | 2 (≈ 3.49 µM) | > 50 | 50 (≈ 87.2 µM) | > 50 | 33 (≈ 57.5 µM) | – | – | – | – | – | – | – | – | –
4 | COc1ccc(F)cc1[C@H](Cn1c(=O)n(CCS(N)(=O)=O)c(=O)c2c(C)c(-c3ncco3)sc21)OC1CCOCC1 [Compound I-148] | 10 (≈ 16.4 µM) | 50 (≈ 82.1 µM) | > 10 | 2 (≈ 3.29 µM) | 50 (≈ 82.1 µM) | > 50 | 50 (≈ 82.1 µM) | > 50 | 33 (≈ 54.2 µM) | – | – | – | – | – | – | – | – | –
5 | COc1ccc(F)cc1[C@H](Cn1c(=O)n(C(C)(C)C(N)=O)c(=O)c2c(C)c(-c3ncco3)sc21)OCC1CCC(=O)CC1 [Compound I-149] | 10 (≈ 16.3 µM) | 50 (≈ 81.6 µM) | 50 (≈ 81.6 µM) | 2 (≈ 3.26 µM) | 2 (≈ 3.26 µM) | > 50 | > 50 | > 50 | 11 (≈ 18 µM) | – | – | – | – | – | – | – | – | –
6 | COc1ccc(F)cc1[C@H](Cn1c(=O)n(C(C)(C)C(=O)N2CCOCC2)c(=O)c2c(C)c(-n3cccn3)sc21)OC(C)C [Compound I-151] | 10 (≈ 16.3 µM) | 50 (≈ 81.5 µM) | 10 (≈ 16.3 µM) | 2 (≈ 3.26 µM) | 2 (≈ 3.26 µM) | > 50 | > 50 | > 50 | 11 (≈ 17.9 µM) | – | – | – | – | – | – | – | – | –
7 | COc1ccccc1[C@H](Cn1c(=O)n(C(C)(C)C(=O)N2CCOCC2)c(=O)c2c(C)c(-c3ncco3)sc21)OC1CCOCC1 [Compound I-152] | 10 (≈ 15.7 µM) | 50 (≈ 78.3 µM) | 50 (≈ 78.3 µM) | 2 (≈ 3.13 µM) | > 50 | > 50 | > 50 | > 50 | > 33 | – | – | – | – | – | – | – | – | –
8 | CCOC(=O)c1sc2c(c1C)c(=O)n(C(C)(C)C(=O)O)c(=O)n2C[C@H](OC(C)C)c1ccccc1OC [Compound I-153] | 2 (≈ 3.76 µM) | > 50 | 50 (≈ 93.9 µM) | 2 (≈ 3.76 µM) | > 50 | > 50 | 50 (≈ 93.9 µM) | > 50 | > 33.3 | – | – | – | – | – | – | – | – | –
9 | COc1ccccc1[C@H](Cn1c(=O)n(C(C)(C)C(N)=O)c(=O)c2c(C)c(-c3ncco3)sc21)OC1CCC(=O)CC1 [Compound I-154] | 2 (≈ 3.44 µM) | 50 (≈ 86.1 µM) | 10 (≈ 17.2 µM) | 2 (≈ 3.44 µM) | 50 (≈ 86.1 µM) | > 50 | > 50 | > 50 | 3.7 (≈ 6.37 µM) | – | – | – | – | – | – | – | – | –
10 | CCOC(=O)c1sc2c(c1C)c(=O)n(C(C)(C)C(N)=O)c(=O)n2C[C@H](OC(C)C)c1ccccc1OC [Compound I-155] | 2 (≈ 3.76 µM) | 50 (≈ 94.1 µM) | 10 (≈ 18.8 µM) | 2 (≈ 3.76 µM) | 10 (≈ 18.8 µM) | > 50 | 50 (≈ 94.1 µM) | > 50 | 33.3 (≈ 62.6 µM) | – | – | – | – | – | – | – | – | –
11 | CCOC(=O)c1sc2c(c1C)c(=O)n(C(C)(C)C(=O)N1CCCCC1)c(=O)n2C[C@H](OC1CCOCC1)c1ccccc1OC [Compound I-168] | – | – | – | – | – | – | – | – | – | 0.4 (≈ 0.623 µM) | 0.4 (≈ 0.623 µM) | 2 (≈ 3.12 µM) | ≥ 0.4 | ≥ 0.4 | > 50 | 2 (≈ 3.12 µM) | ≥ 10 | 1.2
12 | CCNC(=O)C(C)(C)n1c(=O)c2c(C)c(-c3ncco3)sc2n(C[C@H](OC2CCOCC2)c2ccccc2OC)c1=O [Compound I-169] | – | – | – | – | – | – | – | – | – | 10 (≈ 16.8 µM) | 50 (≈ 83.8 µM) | ≥ 10 | ≥ 0.4 | 50 (≈ 83.8 µM) | > 50 | > 50 | > 50 | 11.0
